Values of other authors, collected in patent US10456366B2, “Composition and methods for tissue regeneration” (Chiou Consulting, Inc., priority 2017, dated 2019).

Columns and labels:
[1] = tested on: dogs; settings: food containing 8% of PG, two years
[2] = tested on: rats; settings: water containing 10% of PG, two years

Q: For CC(O)CO (centres unmarked) [PG, propylene glycol], which “adverse effects on feeding” value [1] is on record?
A: Its value is “no adverse effects”.

Q: And the “adverse effects on feeding” value [2]?
A: The value was “no adverse effects”.
